Measurements from patent publication US4640922A, “3N-substituted 3,4-dihydropyrimidines as agents for treating disorders of cardiovascular system” (Suntory Limited, priority 1984, dated 1987).
Where two headings read alike, the source gives them in different places.

Assays:
[1] = test system: coronary artery (isolated heart); experiment: Coronary vascular dilative effect, isolated perfused guinea pig heart, Langendorff's method (perfusion pressure); conditions: for Pharmacological data ED50: 0.1 ml injected into coronary artery, isolated guinea pig heart, 37° C., 6 ml/minute
Experimental: The coronary vascular dilative effect of 3N-substituted 3,4-dihydropryrimidine derivatives was tested.
Heartly guinea pigs (weight 400-500 g) were clubbed dead and their hearts were immediately isolated. The hearts were perfused with Krebs-Henseleit solution bubbled with a mixture of 95% O2 +5% CO2 and maintained at 37° C. at a certain rate of 6 ml/minute according to Langendorff's method [J. Pharmacol. Methods 2, 143 (1979)]. The perfusion pressure was determined by a pressure transducer. Samples were prepared by dissolving 1 mg of a test compound in 1 ml of a mixture of dimethylsulfoxide and physiological saline (1:9) and diluting with physiological saline the solution to the predetermined concentration. 0.1 ml of the diluted solution was administered into the coronary artery via a rubber tube connected to an aorta cannula to obtain ED50 (μg/heart) data as shown in Table 1. The numbers of the compounds in the Table correspond respectively to those of the working examples described above.

vertebral artery = experiment: Blood flow and blood vessel resistance of vertebral artery in anesthetized dogs; type: in vivo, dog; conditions: Canis lupus familiaris, iv, % of value before administration, average ± standard error
Experimental: (§1) The pharmacological effects of the compounds of the present invention with respect to the blood flow and blood vessel resistance of vertebral artery and systemic blood pressure (average pressure) in anesthetized dogs. […] The first and second ribs were cut open to expose the left vertebral artery. A probe was attached to the origin of the artery and the blood flow was measured with an electromagnetic rheometer (Model MF-27, product of Nihon Koden K.K.) At the same time, continuous measurement of the following parameters was made: systemic blood pressure (average pressure) at the right femoral artery, the ECG in the second induction period, the heart beat with a tachometer driven by the R wave, and the blood vessel resistance determined by loading a multiplication/division unit (EO-601 G, product of Nihon Koden K.K.) with the average values of blood pressure and blood flow in the vertebral artery. All of these parameters were recorded simultaneously on a polygraph (RM-600, product of Nihon Koden, K.K.) All of the test compounds were injected through a cannula inserted into the femoral […].

systemic blood pressure = experiment: Systemic blood pressure (average pressure) in anesthetized dogs; type: in vivo, dog; conditions: Canis lupus familiaris, iv, % of value before administration, average ± standard error, read-out: Average blood pressure, percentage compared with control
Experimental: as §1

[2] = read-out: Vertebral artery blood flow, percentage compared with control
[3] = read-out: Vertebral artery vessel resistance, percentage compared with control

Structure (SMILES): COC(=O)C1=C(C)N=C(C)N(C(=O)OC)C1c1ccccc1[N+](=O)[O-] (stereo not drawn) [Compound 10]
- Pharmacological data ED50 [1]: 0.75 μg/heart
- response vs control in vivo at 0.001 mg/kg (vertebral artery; [2]): 102%
- response vs control in vivo at 0.001 mg/kg (vertebral artery; [3]): 99%
- response vs control in vivo at 0.003 mg/kg (vertebral artery; [2]): 108%
- response vs control in vivo at 0.003 mg/kg (vertebral artery; [3]): 94%
- response vs control in vivo at 0.01 mg/kg (vertebral artery; [2]): 113%
- response vs control in vivo at 0.01 mg/kg (vertebral artery; [3]): 86%
- response vs control in vivo at 0.03 mg/kg (vertebral artery; [2]): 140%
- response vs control in vivo at 0.03 mg/kg (vertebral artery; [3]): 67%
- response vs control in vivo at 0.1 mg/kg (vertebral artery; [2]): 146%
- response vs control in vivo at 0.1 mg/kg (vertebral artery; [3]): 58%
- response vs control in vivo at 0.001 mg/kg (systemic blood pressure): 92%
- response vs control in vivo at 0.003 mg/kg (systemic blood pressure): 91%
- response vs control in vivo at 0.01 mg/kg (systemic blood pressure): 86%
- response vs control in vivo at 0.03 mg/kg (systemic blood pressure): 78%
- response vs control in vivo at 0.1 mg/kg (systemic blood pressure): 63%

Structure (SMILES): CCOC(=O)C1=C(C)N=C(C)N(C(=O)OCC)C1c1cccc([N+](=O)[O-])c1 (stereo not drawn) [Compound 12]
- Pharmacological data ED50 [1]: 1.9 μg/heart
- response vs control in vivo at 0.003 mg/kg (vertebral artery; [2]): 129 ± 11%
- response vs control in vivo at 0.003 mg/kg (vertebral artery; [3]): 86 ± 2%
- response vs control in vivo at 0.01 mg/kg (vertebral artery; [2]): 148 ± 3%
- response vs control in vivo at 0.01 mg/kg (vertebral artery; [3]): 73 ± 3%
- response vs control in vivo at 0.03 mg/kg (vertebral artery; [2]): 163 ± 7%
- response vs control in vivo at 0.03 mg/kg (vertebral artery; [3]): 62 ± 4%
- response vs control in vivo at 0.1 mg/kg (vertebral artery; [2]): 200 ± 6%
- response vs control in vivo at 0.1 mg/kg (vertebral artery; [3]): 47 ± 5%
- response vs control in vivo at 0.003 mg/kg (systemic blood pressure): 93 ± 0.3%
- response vs control in vivo at 0.01 mg/kg (systemic blood pressure): 86 ± 1%
- response vs control in vivo at 0.03 mg/kg (systemic blood pressure): 84 ± 3%
- response vs control in vivo at 0.1 mg/kg (systemic blood pressure): 77 ± 2%

Structure (SMILES): CCOC(=O)C1=C(Cl)N=C(C)N(C(=O)OCC)C1c1cccc([N+](=O)[O-])c1 (stereo not drawn) [Compound 13]
- Pharmacological data ED50 [1]: 0.48 μg/heart
- response vs control in vivo at 0.003 mg/kg (vertebral artery; [2]): 108%
- response vs control in vivo at 0.003 mg/kg (vertebral artery; [3]): 89%
- response vs control in vivo at 0.01 mg/kg (vertebral artery; [2]): 126%
- response vs control in vivo at 0.01 mg/kg (vertebral artery; [3]): 81%
- response vs control in vivo at 0.03 mg/kg (vertebral artery; [2]): 128%
- response vs control in vivo at 0.03 mg/kg (vertebral artery; [3]): 73%
- response vs control in vivo at 0.1 mg/kg (vertebral artery; [2]): 158%
- response vs control in vivo at 0.1 mg/kg (vertebral artery; [3]): 54%
- response vs control in vivo at 0.3 mg/kg (vertebral artery; [2]): 179%
- response vs control in vivo at 0.3 mg/kg (vertebral artery; [3]): 46%
- response vs control in vivo at 1 mg/kg (vertebral artery; [2]): 216%
- response vs control in vivo at 1 mg/kg (vertebral artery; [3]): 41%
- response vs control in vivo at 0.003 mg/kg (systemic blood pressure): 94%
- response vs control in vivo at 0.01 mg/kg (systemic blood pressure): 92%
- response vs control in vivo at 0.03 mg/kg (systemic blood pressure): 88%
- response vs control in vivo at 0.1 mg/kg (systemic blood pressure): 78%
- response vs control in vivo at 0.3 mg/kg (systemic blood pressure; 0.3 mg/kg): 78%
- response vs control in vivo at 1 mg/kg (systemic blood pressure; 1.0 mg/kg): 77%

Structure (SMILES): COC(=O)C1=C(C)N=C(C)N(C(=O)OC)C1c1cccc([N+](=O)[O-])c1 (stereo not drawn) [Compound 17]
- Pharmacological data ED50 [1]: 2.5 μg/heart
- response vs control in vivo at 0.001 mg/kg (vertebral artery; [2]): 100%
- response vs control in vivo at 0.001 mg/kg (vertebral artery; [3]): 97%
- response vs control in vivo at 0.003 mg/kg (vertebral artery; [2]): 106%
- response vs control in vivo at 0.003 mg/kg (vertebral artery; [3]): 95%
- response vs control in vivo at 0.01 mg/kg (vertebral artery; [2]): 108%
- response vs control in vivo at 0.01 mg/kg (vertebral artery; [3]): 89%
- response vs control in vivo at 0.03 mg/kg (vertebral artery; [2]): 129%
- response vs control in vivo at 0.03 mg/kg (vertebral artery; [3]): 77%
- response vs control in vivo at 0.1 mg/kg (vertebral artery; [2]): 148%
- response vs control in vivo at 0.1 mg/kg (vertebral artery; [3]): 67%
- response vs control in vivo at 0.001 mg/kg (systemic blood pressure): 95%
- response vs control in vivo at 0.003 mg/kg (systemic blood pressure): 90%
- response vs control in vivo at 0.01 mg/kg (systemic blood pressure): 89%
- response vs control in vivo at 0.03 mg/kg (systemic blood pressure): 86%
- response vs control in vivo at 0.1 mg/kg (systemic blood pressure): 74%

Structure (SMILES): CCOC(=O)C1=C(C)N=C(C)N(C(=O)OCC)C1c1ccccc1Cl (stereo not drawn) [Compound 22]
- Pharmacological data ED50 [1]: 0.086 μg/heart
- coronary vascular dilative effects (in words) ([1]; Langendorff's method, guinea pig heart): extremely strong coronary vascular dilative effects
- response vs control in vivo at 0.001 mg/kg (vertebral artery; [2]): 105%
- response vs control in vivo at 0.001 mg/kg (vertebral artery; [3]): 96%
- response vs control in vivo at 0.003 mg/kg (vertebral artery; [2]): 119%
- response vs control in vivo at 0.003 mg/kg (vertebral artery; [3]): 80%
- response vs control in vivo at 0.01 mg/kg (vertebral artery; [2]): 136%
- response vs control in vivo at 0.01 mg/kg (vertebral artery; [3]): 65%
- response vs control in vivo at 0.03 mg/kg (vertebral artery; [2]): 188%
- response vs control in vivo at 0.03 mg/kg (vertebral artery; [3]): 49%
- response vs control in vivo at 0.1 mg/kg (vertebral artery; [2]): 229%
- response vs control in vivo at 0.1 mg/kg (vertebral artery; [3]): 39%
- response vs control in vivo at 0.001 mg/kg (systemic blood pressure): 94%
- response vs control in vivo at 0.003 mg/kg (systemic blood pressure): 89%
- response vs control in vivo at 0.01 mg/kg (systemic blood pressure): 82%
- response vs control in vivo at 0.03 mg/kg (systemic blood pressure): 85%
- response vs control in vivo at 0.1 mg/kg (systemic blood pressure): 79%
